# Measured values as given in US20230398130A1, “METHODS AND COMPOSITIONS FOR DIFFERENTIATING STEM CELLS” (Massachusetts Institute of Technology, priority 2020, published 2023).
# Experiments:
# ISC-enriched organoids [1] = assay: Primary screen, 384-well 2.5-D organoid differentiation (ENR+CD, 6 days): carbachol-induced lysozyme secretion (LYZ.S); assay type: cell-based, murine; details: for Dose.FC.LYZ.S: FC vs plate median; for Z.LYZ.S: standard z score; for SSMD.LYZ.S: strictly standardized mean difference
# Description: (§1) High-throughput screening.
# ISC-enriched organoids [2] = assay: Primary screen, 384-well 2.5-D organoid differentiation (ENR+CD, 6 days): basal lysozyme secretion (LYZ.NS); assay type: cell-based, murine; details: for Dose.FC.LYZ.NS: FC vs plate median; for SSMD.LYZ.NS: strictly standardized mean difference
# Description: as §1
# ISC-enriched organoids [3] = assay: Primary screen, 384-well 2.5-D organoid differentiation (ENR+CD, 6 days, Target Selective Inhibitor Library, vs whole-plate median): ATP (CellTiter-Glo 3D, CTG); details: for Dose.FC.CTG: FC vs plate median; for SSMD.CTG: strictly standardized mean difference
# [4] = primary screen, 1st of the 4 dose lines of the treatment (dose not given)
# [5] = primary screen, 2nd of the 4 dose lines of the treatment (dose not given)
# [6] = primary screen, 3rd of the 4 dose lines of the treatment (dose not given)
# [7] = primary screen, 4th of the 4 dose lines of the treatment (dose not given)
# [8] = Dose 0.08 uM, primary screen, standard z score
# [9] = Dose 0.40 uM, primary screen, standard z score
# [10] = Dose 2.00 uM, primary screen, standard z score
# [11] = Dose 10.00 uM, primary screen, standard z score
# [12] = Dose 0.08 uM, standard z score of FC
# [13] = Dose 0.40 uM, standard z score of FC
# [14] = Dose 2.00 uM, standard z score of FC
# [15] = Dose 10.00 uM, standard z score of FC
smiles,measurement,setting,value
O=C(Nc1ccccc1)c1cc([N+](=O)[O-])ccc1Cl [GW9662],Dose.FC.LYZ.S,"ISC-enriched organoids [1]; Dose 0.08 uM, primary screen",0.036 log 2 fold change
same,Dose.FC.LYZ.S,"ISC-enriched organoids [1]; Dose 0.40 uM, primary screen",0.080 log 2 fold change
same,Dose.FC.LYZ.S,"ISC-enriched organoids [1]; Dose 2.00 uM, primary screen",0.093 log 2 fold change
same,Dose.FC.LYZ.S,"ISC-enriched organoids [1]; Dose 10.00 uM, primary screen",0.020 log 2 fold change
same,Z.LYZ.S,ISC-enriched organoids [1]; [4],0.235
same,Z.LYZ.S,ISC-enriched organoids [1]; [5],0.520
same,Z.LYZ.S,ISC-enriched organoids [1]; [6],0.599
same,Z.LYZ.S,ISC-enriched organoids [1]; [7],0.131
same,SSMD.LYZ.S,ISC-enriched organoids [1]; [4],0.218
same,SSMD.LYZ.S,ISC-enriched organoids [1]; [5],0.534
same,SSMD.LYZ.S,ISC-enriched organoids [1]; [6],0.571
same,SSMD.LYZ.S,ISC-enriched organoids [1]; [7],0.149
same,Dose.FC.LYZ.NS,"ISC-enriched organoids [2]; Dose 0.08 uM, primary screen",0.035 log 2 fold change
same,Z.LYZ.NS,ISC-enriched organoids [2]; [8],0.305
same,Dose.FC.LYZ.NS,"ISC-enriched organoids [2]; Dose 0.40 uM, primary screen",0.098 log 2 fold change
same,Z.LYZ.NS,ISC-enriched organoids [2]; [9],0.852
same,Dose.FC.LYZ.NS,"ISC-enriched organoids [2]; Dose 2.00 uM, primary screen",0.046 log 2 fold change
same,Z.LYZ.NS,ISC-enriched organoids [2]; [10],0.400
same,Dose.FC.LYZ.NS,"ISC-enriched organoids [2]; Dose 10.00 uM, primary screen",0.030 log 2 fold change
same,Z.LYZ.NS,ISC-enriched organoids [2]; [11],0.264
same,SSMD.LYZ.NS,ISC-enriched organoids [2]; [4],0.272
same,SSMD.LYZ.NS,ISC-enriched organoids [2]; [5],0.722
same,SSMD.LYZ.NS,ISC-enriched organoids [2]; [6],0.336
same,SSMD.LYZ.NS,ISC-enriched organoids [2]; [7],0.282
same,Dose.FC.CTG,"ISC-enriched organoids [3]; Dose 0.08 uM, primary screen",0.115 log 2 fold change
same,Z.CTG,ISC-enriched organoids [3]; [8],0.274
same,Dose.FC.CTG,"ISC-enriched organoids [3]; Dose 0.40 uM, primary screen",0.041 log 2 fold change
same,Z.CTG,ISC-enriched organoids [3]; [9],0.098
same,Dose.FC.CTG,"ISC-enriched organoids [3]; Dose 2.00 uM, primary screen",0.212 log 2 fold change
same,Z.CTG,ISC-enriched organoids [3]; [10],0.508
same,Dose.FC.CTG,"ISC-enriched organoids [3]; Dose 10.00 uM, primary screen",0.133 log 2 fold change
same,Z.CTG,ISC-enriched organoids [3]; [11],0.318
same,SSMD.CTG,ISC-enriched organoids [3]; [4],0.301
same,SSMD.CTG,ISC-enriched organoids [3]; [5],0.117
same,SSMD.CTG,ISC-enriched organoids [3]; [6],0.715
same,SSMD.CTG,ISC-enriched organoids [3]; [7],0.378
Cn1cc(/C=C2\C(=O)Nc3cccnc32)c2ccccc21 [GW441756],Dose.FC.LYZ.S,"ISC-enriched organoids [1]; Dose 0.08 uM, primary screen",0.075 log 2 fold change
same,Dose.FC.LYZ.S,"ISC-enriched organoids [1]; Dose 0.40 uM, primary screen",0.196 log 2 fold change
same,Dose.FC.LYZ.S,"ISC-enriched organoids [1]; Dose 2.00 uM, primary screen",0.125 log 2 fold change
same,Dose.FC.LYZ.S,"ISC-enriched organoids [1]; Dose 10.00 uM, primary screen",0.071 log 2 fold change
same,Z.LYZ.S,ISC-enriched organoids [1]; [6],0.806
same,Z.LYZ.S,ISC-enriched organoids [1]; [7],0.458
same,SSMD.LYZ.S,ISC-enriched organoids [1]; [6],0.911
same,SSMD.LYZ.S,ISC-enriched organoids [1]; [7],0.449
same,Dose.FC.LYZ.NS,"ISC-enriched organoids [2]; Dose 0.08 uM, primary screen",0.046 log 2 fold change
same,Z.LYZ.NS,ISC-enriched organoids [2]; [8],0.399
same,Dose.FC.LYZ.NS,"ISC-enriched organoids [2]; Dose 0.40 uM, primary screen",0.061 log 2 fold change
same,Z.LYZ.NS,ISC-enriched organoids [2]; [9],0.529
same,Dose.FC.LYZ.NS,"ISC-enriched organoids [2]; Dose 2.00 uM, primary screen",0.117 log 2 fold change
same,Z.LYZ.NS,ISC-enriched organoids [2]; [10],1.023
same,Dose.FC.LYZ.NS,"ISC-enriched organoids [2]; Dose 10.00 uM, primary screen",0.088 log 2 fold change
same,Z.LYZ.NS,ISC-enriched organoids [2]; [11],0.763
same,SSMD.LYZ.NS,ISC-enriched organoids [2]; [6],1.215
same,SSMD.LYZ.NS,ISC-enriched organoids [2]; [7],0.357
same,Dose.FC.CTG,"ISC-enriched organoids [3]; Dose 0.08 uM, primary screen",0.048 log 2 fold change
same,Z.CTG,ISC-enriched organoids [3]; [8],0.114
same,Dose.FC.CTG,"ISC-enriched organoids [3]; Dose 0.40 uM, primary screen",−0.105 log 2 fold change
same,Z.CTG,ISC-enriched organoids [3]; [9],−0.252
same,Dose.FC.CTG,"ISC-enriched organoids [3]; Dose 2.00 uM, primary screen",0.152 log 2 fold change
same,Z.CTG,ISC-enriched organoids [3]; [10],0.364
same,Dose.FC.CTG,"ISC-enriched organoids [3]; Dose 10.00 uM, primary screen",−0.113 log 2 fold change
same,Z.CTG,ISC-enriched organoids [3]; [11],−0.270
same,SSMD.CTG,ISC-enriched organoids [3]; [6],0.468
same,SSMD.CTG,ISC-enriched organoids [3]; [7],−0.350
CC(C)c1cc(-c2n[nH]c(=O)n2-c2ccc3c(ccn3C)c2)c(O)cc1O [Ganetespib (STA-9090)],Dose.FC.LYZ.S,"ISC-enriched organoids [1]; Dose 0.08 uM, ENR+CD, 6 days",−0.260 log 2 fold change
same,Dose.FC.LYZ.S,"ISC-enriched organoids [1]; Dose 0.40 uM, ENR+CD, 6 days",−0.250 log 2 fold change
same,Dose.FC.LYZ.S,"ISC-enriched organoids [1]; Dose 2.00 uM, ENR+CD, 6 days",−0.260 log 2 fold change
same,Dose.FC.LYZ.S,"ISC-enriched organoids [1]; Dose 10.00 uM, ENR+CD, 6 days",−0.267 log 2 fold change
same,Dose.FC.LYZ.NS,"ISC-enriched organoids [2]; Dose 0.08 uM, ENR+CD, 6 days",−0.141 log 2 fold change
same,Z.LYZ.NS,ISC-enriched organoids [2]; [12],−1.226
same,Dose.FC.LYZ.NS,"ISC-enriched organoids [2]; Dose 0.40 uM, ENR+CD, 6 days",−0.155 log 2 fold change
same,Z.LYZ.NS,ISC-enriched organoids [2]; [13],−1.345
same,Dose.FC.LYZ.NS,"ISC-enriched organoids [2]; Dose 2.00 uM, ENR+CD, 6 days",−0.150 log 2 fold change
same,Z.LYZ.NS,ISC-enriched organoids [2]; [14],−1.309
same,Dose.FC.LYZ.NS,"ISC-enriched organoids [2]; Dose 10.00 uM, ENR+CD, 6 days",−0.136 log 2 fold change
same,Z.LYZ.NS,ISC-enriched organoids [2]; [15],−1.181
same,Dose.FC.CTG,"ISC-enriched organoids [3]; Dose 0.08 uM, ENR+CD, 6 days",−1.450 log 2 fold change
same,Z.CTG,ISC-enriched organoids [3]; [12],−3.465
same,Dose.FC.CTG,"ISC-enriched organoids [3]; Dose 0.40 uM, ENR+CD, 6 days",−2.105 log 2 fold change
same,Z.CTG,ISC-enriched organoids [3]; [13],−5.027
same,Dose.FC.CTG,"ISC-enriched organoids [3]; Dose 2.00 uM, ENR+CD, 6 days",−1.721 log 2 fold change
same,Z.CTG,ISC-enriched organoids [3]; [14],−4.110
same,Dose.FC.CTG,"ISC-enriched organoids [3]; Dose 10.00 uM, ENR+CD, 6 days",−1.620 log 2 fold change
same,Z.CTG,ISC-enriched organoids [3]; [15],−3.871
C[C@@H]1C(=O)O[C@H]2C[C@@]34[C@H]5C[C@@H](C(C)(C)C)[C@]36[C@@H](OC(=O)[C@@H]6O)O[C@@]4(C(=O)O5)[C@]21O [Ginkgolide A],Dose.FC.LYZ.S,"ISC-enriched organoids [1]; Dose 0.08 uM, ENR+CD, 6 days",0.124 log 2 fold change
same,Dose.FC.LYZ.S,"ISC-enriched organoids [1]; Dose 0.40 uM, ENR+CD, 6 days",0.161 log 2 fold change
same,Dose.FC.LYZ.S,"ISC-enriched organoids [1]; Dose 2.00 uM, ENR+CD, 6 days",0.002 log 2 fold change
same,Dose.FC.LYZ.S,"ISC-enriched organoids [1]; Dose 10.00 uM, ENR+CD, 6 days",−0.028 log 2 fold change
same,Dose.FC.LYZ.NS,"ISC-enriched organoids [2]; Dose 0.08 uM, ENR+CD, 6 days",0.045 log 2 fold change
same,Z.LYZ.NS,ISC-enriched organoids [2]; [12],0.395
same,Dose.FC.LYZ.NS,"ISC-enriched organoids [2]; Dose 0.40 uM, ENR+CD, 6 days",0.025 log 2 fold change
same,Z.LYZ.NS,ISC-enriched organoids [2]; [13],0.222
same,Dose.FC.LYZ.NS,"ISC-enriched organoids [2]; Dose 2.00 uM, ENR+CD, 6 days",0.030 log 2 fold change
same,Z.LYZ.NS,ISC-enriched organoids [2]; [14],0.258
same,Dose.FC.LYZ.NS,"ISC-enriched organoids [2]; Dose 10.00 uM, ENR+CD, 6 days",0.052 log 2 fold change
same,Z.LYZ.NS,ISC-enriched organoids [2]; [15],0.450
same,Dose.FC.CTG,"ISC-enriched organoids [3]; Dose 0.08 uM, ENR+CD, 6 days",0.005 log 2 fold change
same,Z.CTG,ISC-enriched organoids [3]; [12],0.011
same,Dose.FC.CTG,"ISC-enriched organoids [3]; Dose 0.40 uM, ENR+CD, 6 days",−0.017 log 2 fold change
same,Z.CTG,ISC-enriched organoids [3]; [13],−0.040
same,Dose.FC.CTG,"ISC-enriched organoids [3]; Dose 2.00 uM, ENR+CD, 6 days",0.040 log 2 fold change
same,Z.CTG,ISC-enriched organoids [3]; [14],0.095
same,Dose.FC.CTG,"ISC-enriched organoids [3]; Dose 10.00 uM, ENR+CD, 6 days",−0.012 log 2 fold change
same,Z.CTG,ISC-enriched organoids [3]; [15],−0.028
